According to US8648070B2, “Bicyclic ring system substituted sulfonamide functionalised phenols as medicaments” (Boehringer Ingelheim International GmbH, priority 2010, dated 2014):

What follows are compounds tested against T1, human CXCR2 (Homo sapiens, UniProt P25025) (assay: Chemotaxis assay 1, transfected cell line: inhibition of CXCL1 induced chemotaxis of BAF/3 cells expressing human CXCR2). Settings: CXCL1 (3 nM) induced chemotaxis of BAF/3 cells expressing human CXCR2, 4 hours, Cell Titer Glo readout.
T1 construct: expressed in transfected cells; host or cells: BAF/3 cells
T1 sequence (P25025 1-360): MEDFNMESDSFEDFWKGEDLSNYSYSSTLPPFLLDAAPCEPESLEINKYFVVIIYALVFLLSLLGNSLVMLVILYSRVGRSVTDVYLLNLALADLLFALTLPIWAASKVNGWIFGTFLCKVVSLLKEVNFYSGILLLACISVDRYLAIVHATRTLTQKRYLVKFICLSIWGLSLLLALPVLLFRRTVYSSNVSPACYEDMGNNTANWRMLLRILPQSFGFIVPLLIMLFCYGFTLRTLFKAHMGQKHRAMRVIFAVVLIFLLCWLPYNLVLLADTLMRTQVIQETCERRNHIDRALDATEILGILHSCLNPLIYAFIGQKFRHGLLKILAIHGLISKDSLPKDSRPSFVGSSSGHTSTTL
Type: cell-based
Method: Chemotaxis Assay 1, Transfected Cell Line:
This assay measures the inhibition of CXCL1 induced chemotaxis of BAF/3 cells expressing human CXCR2. For each assay point, 100 μL of a 3×10^6/mL cell suspension are incubated with 1 μL of test compound diluted in DMSO. The bottom wells of a chemotaxis plate (5 μm pore size, Neuroprobe) is filled with 305 μL of chemotaxis buffer (RPMI 1640 medium (phenol red free), containing 2% fetal calf serum) and 3 nM CXCL1. The 5 μm pore membrane is applied onto the chemotaxis plate and 80 μL of the cell suspension is cautiously pipetted onto the membrane. The lid is put on the chemotaxis plate and the plate is incubated for 4 hours in an incubator (37° C., 5% CO2). For quantification of migrated cells, the cell suspension and the lid are removed and 100 μL from the bottom chamber are transferred to an Opti plate 96 (Perkin Elmer). 100 μL of substrate solution (provided by Cell Titer Glo kit, Promega) are added. This method uses the measurement of ATP present in metabolically active cells. After 10 min incubation at room temperature the plate is measured at Luminoscan for quantification of ATP-dependent generation of oxyluciferin. IC50s of the tested compound are calculated by non-linear regression and using a sigmoidal dose-response curve as fitting algorithm (provided by GraphPadPrism). Determination of a bottom value is performed by quantification of migration of buffer treated cells, migrating towards buffer only. Determination of a top value is performed by quantification of migration of buffer treated cells, migrating towards CXCL1.

First: O=c1c(Nc2ccc(Cl)c(S(=O)(=O)N3CCN4CCOCC4C3)c2O)c(Nc2cccc(F)c2Cl)c1=O (centres unmarked) [Example 6]
Second: O=c1c(Nc2ccc(Cl)c(S(=O)(=O)N3CCN4CCCC4C3)c2O)c(Nc2cccc(F)c2Cl)c1=O (centres unmarked) [Example 3]
The IC50 of the first is 7.4-fold higher: 37.8 nM for the first, 5.1 nM for the second. The second is the more potent here.

Going from CCC(Nc1c(Nc2ccc(Cl)c(S(=O)(=O)N3CCN4C(=O)CCC4C3)c2O)c(=O)c1=O)c1ccccc1 (centres unmarked) [Example 11] to CC[C@@H](Nc1c(Nc2ccc(Cl)c(S(=O)(=O)N3CCN4CCCC4C3)c2O)c(=O)c1=O)c1ccccc1 (some centres unmarked) [Example 1], the IC50 falls from 2.6 nM to 0.7 nM (3.7-fold). The second is the more potent here.

First: CCC(Nc1c(Nc2ccc(Cl)c(S(=O)(=O)N3CCN4C(=O)CCC4C3)c2O)c(=O)c1=O)c1ccc(C)o1 (centres unmarked) [Example 12]
Second: CC[C@@H](Nc1c(Nc2ccc(Cl)c(S(=O)(=O)N3CCN4CCCC4C3)c2O)c(=O)c1=O)c1ccc(C)o1 (some centres unmarked) [Example 2]
The IC50 of the first is 16-fold higher: 14.4 nM for the first, 0.9 nM for the second. The second is the more potent here.

Going from CC[C@@H](Nc1c(Nc2ccc(Cl)c(S(=O)(=O)N3CCC4(CC3)COCCN4)c2O)c(=O)c1=O)c1ccccc1 [Example 15] to CC[C@@H](Nc1c(Nc2ccc(Cl)c(S(=O)(=O)N3CCC4(CC3)COCCN4)c2O)c(=O)c1=O)c1ccc(C)o1 [Example 16], the IC50 falls from 33.8 nM to 8.7 nM (3.9-fold). The second is the more potent here.

Compared with CC[C@@H](Nc1c(Nc2ccc(Cl)c(S(=O)(=O)N3CCN4CCOCC4C3)c2O)c(=O)c1=O)c1ccccc1 (some centres unmarked) [Example 4], CC[C@@H](Nc1c(Nc2ccc(Cl)c(S(=O)(=O)N3CCN4CCOC[C@@H]4C3)c2O)c(=O)c1=O)c1ccc(C)o1 [Example 9] is 22-fold higher in IC50: 0.6 nM for the first, 13.4 nM for the second.

CC[C@@H](Nc1c(Nc2ccc(Cl)c(S(=O)(=O)N3CCC4(CC3)COCCN4)c2O)c(=O)c1=O)c1ccc(C(F)(F)F)o1 [Example 17] and CC[C@@H](Nc1c(Nc2ccc(Cl)c(S(=O)(=O)N3CCN4CCOC[C@@H]4C3)c2O)c(=O)c1=O)c1ccc(C(F)(F)F)o1 [Example 10] are within 1.5-fold of each other in IC50: 54.4 nM for the first, 64.8 nM for the second.

First: CC[C@@H](Nc1c(Nc2ccc(Cl)c(S(=O)(=O)N3CCC4(CCNC4=O)CC3)c2O)c(=O)c1=O)c1ccc(C)o1 [Example 14]
Second: CC[C@@H](Nc1c(Nc2ccc(Cl)c(S(=O)(=O)N3CCC4(CCNC4=O)CC3)c2O)c(=O)c1=O)c1ccccc1 [Example 13]
The IC50 of the first is 2.1-fold higher: 47.1 nM for the first, 22.6 nM for the second. The second is the more potent here.

Going from CC[C@@H](Nc1c(Nc2ccc(Cl)c(S(=O)(=O)N3C[C@H]4NCCO[C@@H]4C3)c2O)c(=O)c1=O)c1ccc(C)o1 [Example 20] to CC[C@@H](Nc1c(Nc2ccc(Cl)c(S(=O)(=O)N3CCN4CCOCC4C3)c2O)c(=O)c1=O)c1ccc(C)o1 (some centres unmarked) [Example 5], the IC50 falls from 58.6 nM to 6.8 nM (8.6-fold). The second is the more potent here.

First: CC[C@@H](Nc1c(Nc2ccc(Cl)c(S(=O)(=O)N3CCC4(CCCC4)CC3)c2O)c(=O)c1=O)c1ccc(C)o1 [Example 19]
Second: CC[C@@H](Nc1c(Nc2ccc(Cl)c(S(=O)(=O)N3CCC4(CCCC4)CC3)c2O)c(=O)c1=O)c1ccccc1 [Example 18]
The IC50 of the first is 13-fold lower: 11.6 nM for the first, 149 nM for the second.

First: CC[C@@H](Nc1c(Nc2ccc(Cl)c(S(=O)(=O)N3CCN4CCOC[C@H]4C3)c2O)c(=O)c1=O)c1ccc(C(F)(F)F)o1 [Example 8]
Second: CC[C@@H](Nc1c(Nc2ccc(Cl)c(S(=O)(=O)N3CCN4CCOC[C@H]4C3)c2O)c(=O)c1=O)c1ccc(C)o1 [Example 7]
The IC50 of the first is 12-fold higher: 56.6 nM for the first, 4.9 nM for the second.
